According to patent publication US20250171495A1, “MUTLI-TARGETED SERINE PROTEASE INHIBITORS FOR TREATMENT OF CANCER AND VIRAL INFECTION” (Washington University, priority 2023, published 2025):
Read-outs that look alike come from different tables or passages of the source.

What was measured:
Format in all cases: biochemical
[1] = molecular target: T1, hepsin (Homo sapiens, UniProt P05981); assay: Fluorogenic kinetic enzyme inhibitor assay, hepsin
T1 construct: purchased R&D Systems 4776-SE-010

[2] = molecular target: T2, matriptase (Homo sapiens, UniProt Q9Y5Y6); assay: Fluorogenic kinetic enzyme inhibitor assay, matriptase
T2 construct: purchased R&D Systems 3946-SEB-010
T2 sequence (Q9Y5Y6 615-855 limits assumed): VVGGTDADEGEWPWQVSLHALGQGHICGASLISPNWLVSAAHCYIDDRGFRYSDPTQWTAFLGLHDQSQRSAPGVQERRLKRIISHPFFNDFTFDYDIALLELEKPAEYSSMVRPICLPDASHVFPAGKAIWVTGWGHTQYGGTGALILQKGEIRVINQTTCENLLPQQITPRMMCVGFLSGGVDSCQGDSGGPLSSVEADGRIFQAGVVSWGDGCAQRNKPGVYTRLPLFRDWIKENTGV

[3] = molecular target: T3, HGFA (Homo sapiens, UniProt Q04756); assay: Fluorogenic kinetic enzyme inhibitor assay, HGFA
T3 construct: purchased R&D Systems 1514-SE-010
T3 sequence (Q04756 408-655 limits assumed): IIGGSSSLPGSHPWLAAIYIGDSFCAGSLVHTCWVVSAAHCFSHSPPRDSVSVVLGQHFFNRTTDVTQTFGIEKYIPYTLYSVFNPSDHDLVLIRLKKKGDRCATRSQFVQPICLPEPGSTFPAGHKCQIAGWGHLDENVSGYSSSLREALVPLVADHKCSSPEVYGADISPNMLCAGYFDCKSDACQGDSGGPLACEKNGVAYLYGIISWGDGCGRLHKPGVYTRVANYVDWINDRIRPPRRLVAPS
T3 sequence (Q04756 373-407 partner limits assumed): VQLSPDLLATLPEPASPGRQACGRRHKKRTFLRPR

[4] = molecular target: TMPRSS2 (Homo sapiens, UniProt O15393); assay: Fluorogenic kinetic enzyme inhibitor assay, TMPRSS2; design: purchased Cusabio Technology CSB-YP023924HU; conditions: read-out: TMPRSS2 IC50
Sequence of TMPRSS2 (O15393 106-492 limits assumed): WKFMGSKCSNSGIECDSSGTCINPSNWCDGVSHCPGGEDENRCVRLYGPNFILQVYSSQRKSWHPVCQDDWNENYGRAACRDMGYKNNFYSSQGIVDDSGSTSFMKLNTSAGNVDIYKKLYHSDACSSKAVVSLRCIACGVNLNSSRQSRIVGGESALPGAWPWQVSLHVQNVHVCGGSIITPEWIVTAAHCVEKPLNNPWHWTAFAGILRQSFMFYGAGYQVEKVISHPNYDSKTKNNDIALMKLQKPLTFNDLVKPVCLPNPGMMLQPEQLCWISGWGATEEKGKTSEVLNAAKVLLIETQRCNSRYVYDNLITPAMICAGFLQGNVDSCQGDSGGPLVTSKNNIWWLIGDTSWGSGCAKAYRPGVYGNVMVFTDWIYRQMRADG

T1 sequence (P05981 163-417 limits assumed): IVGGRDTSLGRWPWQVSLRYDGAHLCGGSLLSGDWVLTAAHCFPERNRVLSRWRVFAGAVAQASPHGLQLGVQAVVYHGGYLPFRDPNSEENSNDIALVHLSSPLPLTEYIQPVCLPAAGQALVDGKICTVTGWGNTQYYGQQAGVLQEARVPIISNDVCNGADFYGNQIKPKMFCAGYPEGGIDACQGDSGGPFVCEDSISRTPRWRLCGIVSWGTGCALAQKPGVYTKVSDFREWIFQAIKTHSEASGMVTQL
T1 sequence (P05981 1-162 partner limits assumed): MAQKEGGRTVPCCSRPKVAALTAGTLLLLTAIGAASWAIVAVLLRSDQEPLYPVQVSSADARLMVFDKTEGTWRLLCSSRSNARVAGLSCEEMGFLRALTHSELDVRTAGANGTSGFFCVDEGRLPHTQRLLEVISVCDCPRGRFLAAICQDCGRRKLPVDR

| SMILES | IC50 ([1]; read-out: Hepsin IC50) [nM] | IC50 [2] [nM] | IC50 ([3]; read-out: HGFA IC50) [nM] | IC50 [4] [nM] | IC50 [1] [nM] | IC50 [3] [nM] | IC50 ([2]; read-out: Matriptase IC50) [nM] | IC50 ([1]; 30 min incubation, Boc-QAR-AMC at Km, read-out: Hepsin IC50) [nM] | IC50 ([2]; 30 min incubation, Boc-QAR-AMC at Km, read-out: Matriptase IC50) [nM] | IC50 ([4]; 30 min incubation, Boc-QAR-AMC at Km) [nM] |
| --- | --- | --- | --- | --- | --- | --- | --- | --- | --- | --- |
| CCC(C)[C@H](NC(C)=O)C(=O)N[C@@H](CCC(N)=O)C(=O)N[C@H](C(=O)N[C@@H](CCCNC(=N)N)C(=O)c1nc2ccccc2s1)C(C)C (stereo partly drawn) [MM3180-2, N-[(S)-2-methyl-1-[N-(S)-1-[(1,3-benzothiazol-2-yl)carbonyl]-4-guanidinobutylcarbamoyl]propyl](S)-2-[(2S)-2-acetylamino-3-methylvalerylamino]glutaramide] | 0.106 | 0.761 | 799 | 0.031 | – | – | – | – | – | – |
| CC(=O)N1CCC[C@H]1C(=O)N[C@@H](CO)C(=O)N[C@@H](CCCCN)C(=O)N[C@@H](CCCNC(=N)N)C(=O)c1nc2ccccc2s1 [MM3194A, N-[(S)-2-hydroxy-1-[N-(S)-5-amino-1-[N-(S)-1-[(1,3-benzothiazol-2-yl)carbonyl]-4-guanidinobutylcarbamoyl]pentylcarbamoy1]ethyl]-(S)-1-acetyl-2-pyrrolidinecarboxamide] | – | 0.293 | – | 0.286 | 2.43 | > 20000 | – | – | – | – |
| CC(=O)N1CCC[C@H]1C(=O)N[C@@H](CO)C(=O)N[C@@H](CCCCN)C(=O)N[C@H](CCCNC(=N)N)C(=O)c1nc2ccccc2s1 [MM3194C, N-[(S)-2-hydroxy-1-[N-(S)-5-amino-1-[N-(R)-1-[(1,3-benzothiazol-2-yl)carbonyl]-4-guanidinobutylcarbamoyl]pentylcarbamoy1]ethyl]-(S)-1-acetyl-2-pyrrolidinecarboxamide] | 24.9 | 5.72 | > 20000 | – | – | – | – | – | – | – |
| CCC(C)[C@H](NC(C)=O)C(=O)N[C@@H](CO)C(=O)N[C@@H](Cc1ccccc1)C(=O)N[C@H](CCCNC(=N)N)C(=O)c1nc2ccccc2s1 (stereo partly drawn) [MM4009-1, N-[(S)-2-hydroxy-1-[N-(S)-1-[N-(R)-1-[(1,3-benzothiazol-2-yl)carbonyl]-4-guanidinobutylcarbamoyl]-2-phenylethylcarbamoyl]ethyl](2S)-2-acetylamino-3-methylvaleramide] | 2.08 | 18.4 | 1340 | – | – | – | – | – | – | – |
| CCC(C)[C@H](NC(C)=O)C(=O)N[C@@H](CO)C(=O)N[C@@H](Cc1ccccc1)C(=O)N[C@@H](CCCNC(=N)N)C(=O)c1nc2ccccc2s1 (stereo partly drawn) [MM4009-2, N-[(S)-2-hydroxy-1-[N-(S)-1-[N-(S)-1-[(1,3-benzothiazol-2-yl)carbonyl]-4-guanidinobutylcarbamoyl]-2-phenylethylcarbamoyl]ethyl] (2S)-2-acetylamino-3-methylvaleramide] | 1.05 | 2.17 | 126 | 0.067 | – | – | – | – | – | – |
| CCC(C)[C@H](NC(C)=O)C(=O)N[C@H](C(=O)N[C@@H](Cc1ccccc1)C(=O)N[C@@H](CCCNC(=N)N)C(=O)c1nc2ccccc2s1)C(C)O (stereo partly drawn) [MM4028-2, N-[(1S)-2-hydroxy-1-[N-(S)-1-[N-(S)-1-[(1,3-benzothiazol-2-yl)carbonyl]-4-guanidinobutylcarbamoyl]-2-phenylethylcarbamoyl]propyl](2S)-2-acetylamino-3-methylvaleramide] | 0.863 | 4.71 | 182 | 0.064 | – | – | – | – | – | – |
| CC(=O)N[C@@H](CO)C(=O)N[C@@H](Cc1cncn1COCc1ccccc1)C(=O)N[C@@H](CC(C)C)C(=O)N[C@H](CCCNC(=N)N)C(=O)c1nc2ccccc2s1 [MM4036-1, N-[(R)-1-[(1,3-benzothiazol-2-yl)carbonyl]-4-guanidinobutyl](S)-2-[(S)-2-[(S)-2-acetylamino-3-hydroxypropionylamino]-3-{1-[(benzyloxy)methyl]-5-imidazolyl}propionylamino]-4-methylvaleramide] | 1.47 | 139 | 1550 | 102 | – | – | – | – | – | – |
| CC(=O)N[C@@H](CO)C(=O)N[C@@H](Cc1cncn1COCc1ccccc1)C(=O)N[C@@H](CC(C)C)C(=O)N[C@@H](CCCNC(=N)N)C(=O)c1nc2ccccc2s1 [MM4036-2, N-[(S)-1-[(1,3-benzothiazol-2-yl)carbonyl]-4-guanidinobutyl](S)-2-[(S)-2-[(S)-2-acetylamino-3-hydroxypropionylamino]-3-{1-[(benzyloxy)methyl]-5-imidazolyl}propionylamino]-4-methylvaleramide] | 2.81 | 77.7 | 1070 | – | – | – | – | – | – | – |
| CCC(C)[C@H](NC(C)=O)C(=O)N[C@@H](CCC(=O)O)C(=O)N[C@@H](Cc1ccccc1)C(=O)N[C@@H](CCCNC(=N)N)C(=O)c1nc2ccccc2s1 (stereo partly drawn) [MM4037-2, (S)-4-[(2S)-2-acetylamino-3-methylvalerylamino]-4-[N-(S)-1-[N-(S)-1-[(1,3-benzothiazol-2-yl)carbonyl]-4-guanidinobutylcarbamoyl]-2-phenylethylcarbamoyl]butyric acid] | 0.35 | 2.42 | 276 | 0.109 | – | – | – | – | – | – |
| CC(=O)N[C@@H](Cc1c[nH]c2ccccc12)C(=O)N[C@@H](Cc1ccccc1)C(=O)N[C@@H](CCCNC(=N)N)C(=O)c1nc2ccc(C(=O)O)cc2s1 [PK-1-103, 2-[(S)-2-[(S)-2-[(S)-2-acetylamino-3-(3-indolyl)propionylamino]-3-phenylpropionylamino]-5-guanidinovaleryl]-1,3-benzothiazole-6-carboxylic acid] | 2.08 | – | 235 | 0.223 | – | – | 49.1 | – | – | – |
| CC(=O)N[C@@H](Cc1c[nH]c2ccccc12)C(=O)N[C@@H](CC(C)C)C(=O)N[C@@H](CCCNC(=N)N)C(=O)c1nc2ccc(C(=O)O)cc2s1 [PK-1-105, 2-[(S)-2-[(S)-2-[(S)-2-acetylamino-3-(3-indolyl)propionylamino]-4-methylvalerylamino]-5-guanidinovaleryl]-1,3-benzothiazole-6-carboxylic acid] | 0.362 | – | 98.3 | 1.45 | – | – | 144 | – | – | – |
| CC(=O)N[C@H]1Cc2ccc(cc2)OCCCC[C@@H](C(=O)N[C@H](CCCNC(=N)N)C(=O)c2nc3ccccc3s2)NC(=O)[C@H](Cc2ccccc2)NC1=O [VD4111A, N-[(R)-1-[(1,3-benzothiazol-2-yl)carbonyl]-4-guanidinobutyl]-(7S,10S,13S)-13-acetylamino-10-benzyl-9,12-dioxo-2-oxa-8,11-diazabicyclo[13.2.2]nonadeca-1(17),15,18-triene-7-carboxamide] | – | 330 | – | – | 12.7 | 3280 | – | – | – | – |
| CC(=O)N[C@H]1Cc2ccc(cc2)OCCCC[C@@H](C(=O)N[C@@H](CCCNC(=N)N)C(=O)c2nc3ccccc3s2)NC(=O)[C@@H](Cc2c[nH]c3ccccc23)NC1=O [VD4162B, N-[(S)-1-[(1,3-benzothiazol-2-yl)carbonyl]-4-guanidinobutyl]-(7S,10R,13S)-13-acetylamino-10-[(3-indolyl)methyl]-9,12-dioxo-2-oxa-8,11-diazabicyclo[13.2.2]nonadeca-1(17),15,18-triene-7-carboxamide] | – | – | – | – | – | 3.35 | – | 0.538 | 2.88 | 4.75 |
| CC(=O)N[C@H]1Cc2ccc(cc2)Oc2cccc(c2)C[C@@H](C(=O)N[C@H](CCCNC(=N)N)C(=O)c2nc3ccccc3s2)NC(=O)[C@H](CC(C)C)NC1=O [VD5064A, N-{(R)-1-[(1,3-benzothiazol-2-yl)carbonyl]-4-guanidinobutyl}-(9S,12S,15S)-15-acetylamino-12-isobutyl-11,14-dioxo-2-oxa-10,13-diazatricyclo[15.2.2.1^3,^7]docosa-1(19),3,5,7(22),17,20-hexaene-9-carboxamide] | 2.6 | 680 | 550 | 261 | – | – | – | – | – | – |
| CC(=O)N[C@H]1Cc2ccc(cc2)Oc2ccc(cc2)C[C@@H](C(=O)N[C@H](CCCNC(=N)N)C(=O)c2nc3ccccc3s2)NC(=O)[C@H](CC(C)C)NC1=O [VD5076A, N-[(R)-1-[(1,3-benzothiazol-2-yl)carbonyl]-4-guanidinobutyl]-(8S,11S,14S)-14-acetylamino-11-isobutyl-10,13-dioxo-2-oxa-9,12-diazatricyclo[14.2.2.2^3,^6]docosa-1(18),3,5,16,19,21-hexaene-8-carboxamide] | 55.3 | 2370 | 2900 | 489 | – | – | – | – | – | – |
| CC(=O)N[C@H]1Cc2cccc(c2)Oc2ccc(cc2)C[C@@H](C(=O)N[C@H](CCCNC(=N)N)C(=O)c2nc3ccccc3s2)NC(=O)[C@H](CC(C)C)NC1=O [VD5123A, N-{(R)-1-[(1,3-benzothiazol-2-yl)carbonyl]-4-guanidinobutyl}-(9S,12S,15S)-9-acetylamino-12-isobutyl-10,13-dioxo-2-oxa-11,14-diazatricyclo [15.2.2.1^3,^7]docosa-1(19),3(22),4,6,17,20-hexaene-15-carboxamide] | 146 | 478 | 17300 | 1.78 | – | – | – | – | – | – |
